Results on nine molecules are retold here after patent US20090299044A1 (priority 2006, published 2009).

Entries after “also recorded” stand apart in the source; their conditions may differ. Like-named read-outs stand apart in the source and are kept apart here. Bridge positions count the residues as written; N and C are the ends. Peptide text beside a SMILES is read from it.

In data set [1] the target is T1, human Kv1.1 (Homo sapiens, UniProt Q09470). The experiment in a line: cell-based. The arrangement: expressed in transfected cells; host or cells: HEK293.
The target in another data set is T2, human Kv1.1 (HEK293) (Homo sapiens, UniProt Q09470).
T2 construct: expressed in transfected cells; host or cells: HEK293
The experiment in a line: cell-based.

For data set [2], the target named is T3, human Kv1.3 channel (Homo sapiens, UniProt P22001). In words: cell-based. It is filed as cell-based.
In another data set the target is T4, human Kv1.3 (CHO) (Homo sapiens, UniProt P22001).
T4 construct: expressed in transfected cells; host or cells: CHO
The experiment in a line: cell-based.

In data set [3] the test system is IL-2 production, human whole blood. It counts as cell-based.
In data set [4] the test system is IFN-g production, human whole blood. It is filed as cell-based.
For data set [5] the following is noted: cited from earlier work.
The conditions of data set [6]: rat, in vivo, iv, 1 mg/kg.
Data set [7] addresses T1, human Kv1.1. The experiment in a line: cell-based or functional assay.
Data set [8] relates to CD40L on CD4+ T cells, human whole blood. It is filed as cell-based.
Data set [9] deals with IL-2R on CD4+ T cells, human whole blood. It counts as cell-based.
In data set [10] the target is human Kv1.1 voltage-gated potassium channel (human) (UniProt Q09470). In words: cell-based or functional assay.
Data set [11] deals with human Kv1.3 voltage-gated potassium channel (human) (UniProt P22001). The experiment in a line: cell-based or functional assay.
The target in data set [12] is T3, human Kv1.3 channel. The experiment in a line: cell-based or functional assay.

T1 sequence (Q09470 whole entry): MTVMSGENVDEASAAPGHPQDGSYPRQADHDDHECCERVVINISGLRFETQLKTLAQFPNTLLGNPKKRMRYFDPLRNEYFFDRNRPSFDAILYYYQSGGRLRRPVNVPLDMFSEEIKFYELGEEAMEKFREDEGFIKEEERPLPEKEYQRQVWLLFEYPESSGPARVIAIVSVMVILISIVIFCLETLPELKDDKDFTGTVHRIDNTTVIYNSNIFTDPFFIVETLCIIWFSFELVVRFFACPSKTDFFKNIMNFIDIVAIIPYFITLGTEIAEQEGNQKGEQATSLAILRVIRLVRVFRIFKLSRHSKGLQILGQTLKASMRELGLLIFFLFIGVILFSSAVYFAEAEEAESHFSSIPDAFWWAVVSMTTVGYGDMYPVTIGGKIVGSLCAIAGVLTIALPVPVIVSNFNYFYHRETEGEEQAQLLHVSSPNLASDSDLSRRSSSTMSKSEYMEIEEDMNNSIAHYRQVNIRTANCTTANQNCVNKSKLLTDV
T3 sequence (P22001 whole entry): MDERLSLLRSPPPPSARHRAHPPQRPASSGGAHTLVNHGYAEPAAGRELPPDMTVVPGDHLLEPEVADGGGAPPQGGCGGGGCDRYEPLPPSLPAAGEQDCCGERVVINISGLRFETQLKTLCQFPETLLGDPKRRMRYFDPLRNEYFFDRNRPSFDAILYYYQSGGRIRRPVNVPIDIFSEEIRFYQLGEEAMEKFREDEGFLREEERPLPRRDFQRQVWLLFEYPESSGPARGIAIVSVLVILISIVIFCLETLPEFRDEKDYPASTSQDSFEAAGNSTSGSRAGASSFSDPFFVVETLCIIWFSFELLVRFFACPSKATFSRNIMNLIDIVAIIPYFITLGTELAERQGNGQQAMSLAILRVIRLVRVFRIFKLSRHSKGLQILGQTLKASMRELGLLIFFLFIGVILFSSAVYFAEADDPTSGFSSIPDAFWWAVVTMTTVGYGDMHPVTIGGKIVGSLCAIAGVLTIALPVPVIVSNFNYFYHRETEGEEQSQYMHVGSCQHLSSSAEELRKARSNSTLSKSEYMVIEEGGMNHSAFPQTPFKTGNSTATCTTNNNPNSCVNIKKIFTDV
Sequence of human Kv1.3 voltage-gated potassium channel (human) (P22001 whole entry): as above
Sequence of human Kv1.1 voltage-gated potassium channel (human) (Q09470 whole entry): as the sequence (Q09470 whole entry) above
T2 sequence (Q09470 whole entry): as above
T4 sequence (P22001 whole entry): as the sequence (P22001 whole entry) above

As to `CC[C@H](C)[C@@H]1NC(=O)[C@H](CCCCN)NC(=O)[C@@H](NC(=O)[C@H](CCCCN)NC(=O)[C@@H](NC(=O)[C@H](CC(N)=O)NC(=O)[C@@H](NC(=O)[C@@H](NC(=O)[C@@H](NC(=O)CN)C(C)C)[C@@H](C)CC)[C@@H](C)CC)C(C)C)CSSC[C@@H]2NC(=O)[C@H](C)NC(=O)CNC(=O)[C@H](Cc3ccccc3)NC(=O)[C@H](CCCNC(=N)N)NC(=O)[C@H](CCSC)NC(=O)CNC(=O)[C@H](C)NC(=O)[C@H](CCCCN)NC(=O)[C@H](CCCCN)NC(=O)[C@@H]3CSSC[C@@H](C(=O)N[C@H](C(=O)N4CCC[C@H]4C(=O)N[C@@H](CCCCN)C(=O)O)[C@@H](C)O)NC(=O)[C@H](Cc4c[nH]cn4)NC(=O)[C@H](CSSC[C@H](NC(=O)[C@H](CCC(N)=O)NC(=O)[C@H](CCCNC(=N)N)NC(=O)[C@H](CO)NC1=O)C(=O)N[C@@H](CC(C)C)C(=O)N[C@@H](CCC(=O)O)C(=O)N1CCC[C@H]1C(=O)N3)NC(=O)[C@H](CCCCN)NC(=O)CNC(=O)[C@H](CC(N)=O)NC(=O)[C@H](CCSC)NC2=O` [K27A] (H-GVIINVKCKISRQCLEPCKKAGMRFGACMNGKCHCTPK-OH; disulfide 8-28, 14-33, 18-35), the IC50 at human Kv1.1 [1] is 10.1 nM; against human Kv1.1 (HEK293) it was above 3 nM; at human Kv1.3 channel [2], 0.289 nM; against human Kv1.3 (CHO), 0.232 nM.
Take `CC[C@H](C)[C@@H]1NC(=O)[C@H](CCCCN)NC(=O)[C@@H](NC(=O)[C@H](CCCCN)NC(=O)[C@@H](NC(=O)[C@H](CC(N)=O)NC(=O)[C@@H](NC(=O)[C@@H](NC(=O)[C@@H](NC(=O)CN)C(C)C)[C@@H](C)CC)[C@@H](C)CC)C(C)C)CSSC[C@@H]2NC(=O)[C@H](CCCCN)NC(=O)CNC(=O)[C@H](Cc3ccccc3)NC(=O)[C@H](CCCNC(=N)N)NC(=O)[C@H](CCSC)NC(=O)CNC(=O)[C@H](C)NC(=O)[C@H](CCCCN)NC(=O)[C@H](CCCCN)NC(=O)[C@@H]3CSSC[C@@H](C(=O)N[C@H](C(=O)N4CCC[C@H]4C(=O)N[C@@H](CCCCN)C(=O)O)[C@@H](C)O)NC(=O)[C@H](Cc4c[nH]cn4)NC(=O)[C@H](CSSC[C@H](NC(=O)[C@H](CCC(N)=O)NC(=O)[C@H](CCCNC(=N)N)NC(=O)[C@H](CCC(=O)O)NC1=O)C(=O)N[C@@H](CC(C)C)C(=O)N[C@@H](CCC(=O)O)C(=O)N1CCC[C@H]1C(=O)N3)NC(=O)[C@H](CCCCN)NC(=O)CNC(=O)[C@H](CC(N)=O)NC(=O)[C@H](CCSC)NC2=O` [S11E] (H-GVIINVKCKIERQCLEPCKKAGMRFGKCMNGKCHCTPK-OH; disulfide 8-28, 14-33, 18-35): the IC50 in data set [3] (read-out: Analogue Activity (IC50, pM) WB/IL-2) turned out to be 39900 pM; in data set [4] (read-out: Analogue Activity (IC50, pM) WB/IFNg), 16900 pM.
With `CC[C@H](C)[C@@H]1NC(=O)[C@@H](NC(=O)[C@H](CO)NC(=O)[C@@H](N)CCCNC(=N)N)CSSC[C@@H](C(=O)O)NC(=O)[C@H]([C@@H](C)O)NC(=O)CNC(=O)[C@@H]2CSSC[C@@H]3NC(=O)[C@H](CCC(N)=O)NC(=O)[C@H](Cc4ccccc4)NC(=O)[C@H](C)NC(=O)[C@H]([C@@H](C)O)NC(=O)[C@H](CSSC[C@H](NC(=O)[C@H](Cc4ccccc4)NC(=O)[C@H](CO)NC(=O)[C@H](CC(C)C)NC(=O)[C@H](CCCNC(=N)N)NC(=O)[C@H](Cc4ccc(O)cc4)NC(=O)[C@H](CCCCN)NC(=O)[C@H](CCSC)NC(=O)[C@H](CO)NC(=O)[C@H](Cc4cnc[nH]4)NC(=O)[C@H](CCCCN)NC3=O)C(=O)N[C@@H](CCCNC(=N)N)C(=O)N[C@@H](CCCCN)C(=O)N[C@@H]([C@@H](C)O)C(=O)N2)NC(=O)[C@H](CCCNC(=N)N)NC(=O)[C@H](CO)NC(=O)[C@H](CCCCN)NC(=O)[C@@H]2CCCN2C(=O)[C@H]([C@@H](C)CC)NC(=O)[C@H]([C@@H](C)O)NC(=O)[C@H](CC(=O)O)NC1=O` [ShK[1-35]], the half-life in vivo in data set [5] is reported as around 20 min. Moreover, the “half-life of the native ShK molecule” value in data set [5] (in vivo) is “approximately 0.33 hour”. For the same molecule, in data set [6], the “duration of significant suppression of Kv1.3 current (<70 POC) by 5% serum Test solutions” value was at most 1 h.
Molecule Fc-L10-OSK1 (CHO-expressed) (Fc fusion) showed a hKv1.1: IC50 (whole cell patch clamp, block of K+ current) with human Kv1.1 [7] of 41.6 nM.
With “Fc-L10-ShK[2-35]: human IgG1 Fc fused via 10 amino acid linker to ShK[2-35], CHO-derived peptibody”, the “thapsigargin-induced IL-2 production in human whole blood (in words)” value in data set [3] is reported as “potently blocked IL-2 secretion in human whole blood; also recorded: suppressed”. Besides, in [8], the “thapsigargin-induced upregulation of CD40L on T cells in human whole blood (in words)” value is recorded as “blocked”. In addition, the “thapsigargin-induced IFN-g production in human whole blood (in words)” value in [4] is “suppressed; also recorded: blocked”. In addition, the “block of human Kv1.3 current (in words)” value in the data set with human Kv1.3 channel [2] was “potently blocks”. Further, in data set [9], the “thapsigargin-induced upregulation of the IL-2R on T cells in human whole blood (in words)” value is “suppressing activation of the IL-2R on CD4+ T cells; also recorded: blocked”.
“IbTx: BKCa channel inhibitor iberiotoxin, Bachem (QFTDVDCSVSKECWSVCKDLFGVDRGKCMGKKCRCYQ; Definition of Artificial Sequence: Synthetic peptide) [reference compound]”: in [3], the “thapsigargin-induced IL-2 production in human whole blood (in words)” value was “no significant activity”. In data set [8], the “thapsigargin-induced upregulation of CD40L on T cells in human whole blood (in words)” value is “no significant activity”. In addition, the “thapsigargin-induced IFN-g production in human whole blood (in words)” value in data set [4] is “no significant activity”. Also, the “thapsigargin-induced upregulation of the IL-2R on T cells in human whole blood (in words)” value in [9] is reported as “no significant activity”.
For “OSK1 (native Orthochirus scrobiculosus toxin peptide)”, the Kv1.1 (IC50, pM), whole cell patch clamp ePhys in [10] was 202 pM. In addition, in data set [11], the Kv1.3 (IC50, pM), whole cell patch clamp ePhys was determined as 39 pM and the Kv1.3 Selectivity (=Kv1.1/Kv.3 IC50) turned out to be 5.
Consider Synthetic OSK1 toxin peptide, for which the hKv1.3: IC50 (whole cell patch clamp, block of K+ current) with human Kv1.3 channel [12] was determined as 0.039 nM. Also, the hKv1.1: IC50 (whole cell patch clamp, block of K+ current) with human Kv1.1 [7] turned out to be 0.16 nM.

B1: MGGHHHHHHGGGPSVFLFPPKPKDTLMISRTPEVTCVVVDVSHEDPEVKFNWYVDGVEVHNAKTKPREEQYNSTYRVVSVLTVLHQDWLNGKEYKCKVSNKALPAPIEKTISGGGGSGGGGSGVIINVKCKISRQCLEPCKKAGMRFGKCMNGKCHCTPK (protein)
chain: MGGHHHHHHGGGPSVFLFPPKPKDTLMISRTPEVTCVVVDVSHEDPEVKFNWYVDGVEVHNAKTKPREEQYNSTYRVVSVLTVLHQDWLNGKEYKCKVSNKALPAPIEKTISGGGGSGGGGSGVIINVKCKISRQCLEPCKKAGMRFGKCMNGKCHCTPK
In the case of B1, in [3], the “blockade of the whole blood cytokine response (IL-2 and IFNg), in words” value is “active in blocking inflammation; also recorded: modest blockade”. In addition, the IC50 in [3] (read-out: WB/IL-2 (IC50)) was found to be 38500 pM; in [4] (read-out: WB/IFNg (IC50)) it was 55200 pM.
